Earlier results as cited in patent US20040062739A1, “Use of carbohydrates to improve skin barrier function” (SOCIETE L'OREAL S.A., priority 2000, published 2004).

System: GLY-06
Set-up: key: −: no activity; ε, +, ++: specific activity; ε, +, ++: specific activity; ε, +, ++: specific activity
Details: glycosidase sold by Clonezyme; cited from earlier work

| Structure (SMILES) | substrate specificity GLY-06 |
| --- | --- |
| C[C@H]1O[C@@H](O)[C@H](O)[C@@H](O)[C@H]1O [β-D-fucose] | ++ |
| OC[C@H]1O[C@@H](O)[C@H](O)[C@@H](O)[C@H]1O [β-D-galactose] | ε |
| OC[C@H]1O[C@@H](O)[C@H](O)[C@@H](O)[C@@H]1O [β-D-glucose] | − |
| O=C(O)[C@H]1O[C@@H](Oc2ccc([N+](=O)[O-])cc2)[C@H](O)[C@@H](O)[C@@H]1O [β-D-glucuronide] | − |
| OC[C@H]1O[C@@H](O[C@H]2[C@H](O)[C@@H](O)[C@H](O)O[C@@H]2CO)[C@H](O)[C@@H](O)[C@H]1O [β-D-lactose] | + |
| OC[C@H]1O[C@@H](O)[C@@H](O)[C@@H](O)[C@@H]1O [β-D-mannose] | + |
| O[C@@H]1[C@@H](O)[C@H](O)OC[C@H]1O [β-D-xylose] | ε |
| C[C@@H]1O[C@H](O)[C@@H](O)[C@H](O)[C@@H]1O [β-L-fucose] | − |

System: GLY-10
Set-up: key: −: no activity; ε, +, ++: specific activity; ε, +, ++: specific activity; ε, +, ++: specific activity
Details: glycosidase sold by Clonezyme; cited from earlier work

| Structure (SMILES) | substrate specificity GLY-10 |
| --- | --- |
| C[C@H]1O[C@@H](O)[C@H](O)[C@@H](O)[C@H]1O [β-D-fucose] | − |
| OC[C@H]1O[C@@H](O)[C@H](O)[C@@H](O)[C@H]1O [β-D-galactose] | − |
| OC[C@H]1O[C@@H](O)[C@H](O)[C@@H](O)[C@@H]1O [β-D-glucose] | − |
| O=C(O)[C@H]1O[C@@H](Oc2ccc([N+](=O)[O-])cc2)[C@H](O)[C@@H](O)[C@@H]1O [β-D-glucuronide] | − |
| OC[C@H]1O[C@@H](O[C@H]2[C@H](O)[C@@H](O)[C@H](O)O[C@@H]2CO)[C@H](O)[C@@H](O)[C@H]1O [β-D-lactose] | − |
| OC[C@H]1O[C@@H](O)[C@@H](O)[C@@H](O)[C@@H]1O [β-D-mannose] | − |
| O[C@@H]1[C@@H](O)[C@H](O)OC[C@H]1O [β-D-xylose] | − |
| C[C@@H]1O[C@H](O)[C@@H](O)[C@H](O)[C@@H]1O [β-L-fucose] | − |

System: GLY-03
Set-up: key: −: no activity; ε, +, ++: specific activity; ε, +, ++: specific activity; ε, +, ++: specific activity
Details: glycosidase sold by Clonezyme; cited from earlier work

| Structure (SMILES) | substrate specificity GLY-03 |
| --- | --- |
| C[C@H]1O[C@@H](O)[C@H](O)[C@@H](O)[C@H]1O [β-D-fucose] | ++ |
| OC[C@H]1O[C@@H](O)[C@H](O)[C@@H](O)[C@H]1O [β-D-galactose] | ε |
| OC[C@H]1O[C@@H](O)[C@H](O)[C@@H](O)[C@@H]1O [β-D-glucose] | − |
| O=C(O)[C@H]1O[C@@H](Oc2ccc([N+](=O)[O-])cc2)[C@H](O)[C@@H](O)[C@@H]1O [β-D-glucuronide] | − |
| OC[C@H]1O[C@@H](O[C@H]2[C@H](O)[C@@H](O)[C@H](O)O[C@@H]2CO)[C@H](O)[C@@H](O)[C@H]1O [β-D-lactose] | ε |
| OC[C@H]1O[C@@H](O)[C@@H](O)[C@@H](O)[C@@H]1O [β-D-mannose] | − |
| O[C@@H]1[C@@H](O)[C@H](O)OC[C@H]1O [β-D-xylose] | − |
| C[C@@H]1O[C@H](O)[C@@H](O)[C@H](O)[C@@H]1O [β-L-fucose] | − |

System: GLY-01
Set-up: key: −: no activity; ε, +, ++: specific activity; ε, +, ++: specific activity; ε, +, ++: specific activity
Details: glycosidase sold by Clonezyme; cited from earlier work

| Structure (SMILES) | substrate specificity GLY-01 |
| --- | --- |
| C[C@H]1O[C@@H](O)[C@H](O)[C@@H](O)[C@H]1O [β-D-fucose] | − |
| OC[C@H]1O[C@@H](O)[C@H](O)[C@@H](O)[C@H]1O [β-D-galactose] | − |
| OC[C@H]1O[C@@H](O)[C@H](O)[C@@H](O)[C@@H]1O [β-D-glucose] | − |
| O=C(O)[C@H]1O[C@@H](Oc2ccc([N+](=O)[O-])cc2)[C@H](O)[C@@H](O)[C@@H]1O [β-D-glucuronide] | − |
| OC[C@H]1O[C@@H](O[C@H]2[C@H](O)[C@@H](O)[C@H](O)O[C@@H]2CO)[C@H](O)[C@@H](O)[C@H]1O [β-D-lactose] | − |
| OC[C@H]1O[C@@H](O)[C@@H](O)[C@@H](O)[C@@H]1O [β-D-mannose] | − |
| O[C@@H]1[C@@H](O)[C@H](O)OC[C@H]1O [β-D-xylose] | ε |
| C[C@@H]1O[C@H](O)[C@@H](O)[C@H](O)[C@@H]1O [β-L-fucose] | − |

System: GLY-09
Set-up: key: −: no activity; ε, +, ++: specific activity; ε, +, ++: specific activity; ε, +, ++: specific activity
Details: glycosidase sold by Clonezyme; cited from earlier work

| Structure (SMILES) | substrate specificity GLY-09 |
| --- | --- |
| C[C@H]1O[C@@H](O)[C@H](O)[C@@H](O)[C@H]1O [β-D-fucose] | ++ |
| OC[C@H]1O[C@@H](O)[C@H](O)[C@@H](O)[C@H]1O [β-D-galactose] | − |
| OC[C@H]1O[C@@H](O)[C@H](O)[C@@H](O)[C@@H]1O [β-D-glucose] | − |
| O=C(O)[C@H]1O[C@@H](Oc2ccc([N+](=O)[O-])cc2)[C@H](O)[C@@H](O)[C@@H]1O [β-D-glucuronide] | − |
| OC[C@H]1O[C@@H](O[C@H]2[C@H](O)[C@@H](O)[C@H](O)O[C@@H]2CO)[C@H](O)[C@@H](O)[C@H]1O [β-D-lactose] | − |
| OC[C@H]1O[C@@H](O)[C@@H](O)[C@@H](O)[C@@H]1O [β-D-mannose] | + |
| O[C@@H]1[C@@H](O)[C@H](O)OC[C@H]1O [β-D-xylose] | ε |
| C[C@@H]1O[C@H](O)[C@@H](O)[C@H](O)[C@@H]1O [β-L-fucose] | − |

System: GLY-04
Set-up: key: −: no activity; ε, +, ++: specific activity; ε, +, ++: specific activity; ε, +, ++: specific activity
Details: glycosidase sold by Clonezyme; cited from earlier work

| Structure (SMILES) | substrate specificity GLY-04 |
| --- | --- |
| C[C@H]1O[C@@H](O)[C@H](O)[C@@H](O)[C@H]1O [β-D-fucose] | ++ |
| OC[C@H]1O[C@@H](O)[C@H](O)[C@@H](O)[C@H]1O [β-D-galactose] | + |
| OC[C@H]1O[C@@H](O)[C@H](O)[C@@H](O)[C@@H]1O [β-D-glucose] | − |
| O=C(O)[C@H]1O[C@@H](Oc2ccc([N+](=O)[O-])cc2)[C@H](O)[C@@H](O)[C@@H]1O [β-D-glucuronide] | − |
| OC[C@H]1O[C@@H](O[C@H]2[C@H](O)[C@@H](O)[C@H](O)O[C@@H]2CO)[C@H](O)[C@@H](O)[C@H]1O [β-D-lactose] | − |
| OC[C@H]1O[C@@H](O)[C@@H](O)[C@@H](O)[C@@H]1O [β-D-mannose] | − |
| O[C@@H]1[C@@H](O)[C@H](O)OC[C@H]1O [β-D-xylose] | ε |
| C[C@@H]1O[C@H](O)[C@@H](O)[C@H](O)[C@@H]1O [β-L-fucose] | − |

System: GLY-02
Set-up: key: −: no activity; ε, +, ++: specific activity; ε, +, ++: specific activity; ε, +, ++: specific activity
Details: glycosidase sold by Clonezyme; cited from earlier work

| Structure (SMILES) | substrate specificity GLY-02 |
| --- | --- |
| C[C@H]1O[C@@H](O)[C@H](O)[C@@H](O)[C@H]1O [β-D-fucose] | ++ |
| OC[C@H]1O[C@@H](O)[C@H](O)[C@@H](O)[C@H]1O [β-D-galactose] | ++ |
| OC[C@H]1O[C@@H](O)[C@H](O)[C@@H](O)[C@@H]1O [β-D-glucose] | − |
| O=C(O)[C@H]1O[C@@H](Oc2ccc([N+](=O)[O-])cc2)[C@H](O)[C@@H](O)[C@@H]1O [β-D-glucuronide] | − |
| OC[C@H]1O[C@@H](O[C@H]2[C@H](O)[C@@H](O)[C@H](O)O[C@@H]2CO)[C@H](O)[C@@H](O)[C@H]1O [β-D-lactose] | + |
| OC[C@H]1O[C@@H](O)[C@@H](O)[C@@H](O)[C@@H]1O [β-D-mannose] | ε |
| O[C@@H]1[C@@H](O)[C@H](O)OC[C@H]1O [β-D-xylose] | + |
| C[C@@H]1O[C@H](O)[C@@H](O)[C@H](O)[C@@H]1O [β-L-fucose] | − |

System: GLY-05
Set-up: key: −: no activity; ε, +, ++: specific activity; ε, +, ++: specific activity; ε, +, ++: specific activity
Details: glycosidase sold by Clonezyme; cited from earlier work

| Structure (SMILES) | substrate specificity GLY-05 |
| --- | --- |
| C[C@H]1O[C@@H](O)[C@H](O)[C@@H](O)[C@H]1O [β-D-fucose] | ++ |
| OC[C@H]1O[C@@H](O)[C@H](O)[C@@H](O)[C@H]1O [β-D-galactose] | + |
| OC[C@H]1O[C@@H](O)[C@H](O)[C@@H](O)[C@@H]1O [β-D-glucose] | − |
| O=C(O)[C@H]1O[C@@H](Oc2ccc([N+](=O)[O-])cc2)[C@H](O)[C@@H](O)[C@@H]1O [β-D-glucuronide] | − |
| OC[C@H]1O[C@@H](O[C@H]2[C@H](O)[C@@H](O)[C@H](O)O[C@@H]2CO)[C@H](O)[C@@H](O)[C@H]1O [β-D-lactose] | − |
| OC[C@H]1O[C@@H](O)[C@@H](O)[C@@H](O)[C@@H]1O [β-D-mannose] | − |
| O[C@@H]1[C@@H](O)[C@H](O)OC[C@H]1O [β-D-xylose] | ε |
| C[C@@H]1O[C@H](O)[C@@H](O)[C@H](O)[C@@H]1O [β-L-fucose] | − |

System: GLY-07
Set-up: key: −: no activity; ε, +, ++: specific activity; ε, +, ++: specific activity; ε, +, ++: specific activity
Details: glycosidase sold by Clonezyme; cited from earlier work

| Structure (SMILES) | substrate specificity GLY-07 |
| --- | --- |
| C[C@H]1O[C@@H](O)[C@H](O)[C@@H](O)[C@H]1O [β-D-fucose] | ++ |
| OC[C@H]1O[C@@H](O)[C@H](O)[C@@H](O)[C@H]1O [β-D-galactose] | ε |
| OC[C@H]1O[C@@H](O)[C@H](O)[C@@H](O)[C@@H]1O [β-D-glucose] | − |
| O=C(O)[C@H]1O[C@@H](Oc2ccc([N+](=O)[O-])cc2)[C@H](O)[C@@H](O)[C@@H]1O [β-D-glucuronide] | ε |
| OC[C@H]1O[C@@H](O[C@H]2[C@H](O)[C@@H](O)[C@H](O)O[C@@H]2CO)[C@H](O)[C@@H](O)[C@H]1O [β-D-lactose] | ε |
| OC[C@H]1O[C@@H](O)[C@@H](O)[C@@H](O)[C@@H]1O [β-D-mannose] | + |
| O[C@@H]1[C@@H](O)[C@H](O)OC[C@H]1O [β-D-xylose] | ε |
| C[C@@H]1O[C@H](O)[C@@H](O)[C@H](O)[C@@H]1O [β-L-fucose] | − |

System: GLY-08
Set-up: key: −: no activity; ε, +, ++: specific activity; ε, +, ++: specific activity; ε, +, ++: specific activity
Details: glycosidase sold by Clonezyme; cited from earlier work

| Structure (SMILES) | substrate specificity GLY-08 |
| --- | --- |
| C[C@H]1O[C@@H](O)[C@H](O)[C@@H](O)[C@H]1O [β-D-fucose] | + |
| OC[C@H]1O[C@@H](O)[C@H](O)[C@@H](O)[C@H]1O [β-D-galactose] | + |
| OC[C@H]1O[C@@H](O)[C@H](O)[C@@H](O)[C@@H]1O [β-D-glucose] | − |
| O=C(O)[C@H]1O[C@@H](Oc2ccc([N+](=O)[O-])cc2)[C@H](O)[C@@H](O)[C@@H]1O [β-D-glucuronide] | − |
| OC[C@H]1O[C@@H](O[C@H]2[C@H](O)[C@@H](O)[C@H](O)O[C@@H]2CO)[C@H](O)[C@@H](O)[C@H]1O [β-D-lactose] | − |
| OC[C@H]1O[C@@H](O)[C@@H](O)[C@@H](O)[C@@H]1O [β-D-mannose] | − |
| O[C@@H]1[C@@H](O)[C@H](O)OC[C@H]1O [β-D-xylose] | ε |
| C[C@@H]1O[C@H](O)[C@@H](O)[C@H](O)[C@@H]1O [β-L-fucose] | − |
